Data from US9040714B2 (MannKind Corporation, priority 2010, dated 2015).
Like-named read-outs stand apart in the source and are kept apart here.

Tests used:
[1] = target: human IRE-1α (GST-IRE-1α) (Homo sapiens (Human), UniProt O75460); test: IRE-1α assay in vitro: cleavage of Cy5/BHQ2-labelled mini-XBP-1 mRNA stem-loop substrate; assay type: biochemical; details: average IC50 for inhibition of IRE-1α
Protocol: In some embodiments IRE-la inhibitor compounds form a complex with IRE-1α. […] Other substrates also can be used to detect cleavage. See US 2007/0105123.
A fusion protein comprising glutathione S transferase (GST) and human IRE-1α (GST-IRE-1α) obtained from a 500 ml baculovirus-infected insect cell culture can be used to measure IRE-1α activity in vitro.
Five μl of a reaction mixture comprising IX reaction buffer (5× reaction buffer is 100 mM Hepes pH 7.5, 250 mM KOAc, 2.5 mM MgCl2), 3 mM DTT, and 0.4% polyethylene glycol water is added to each well of 384 well plates. Twenty-five nanoliters of a 1 mM test compound solution are added to test wells. Three μl of a […] IRE-1α preparation are added to each test well and to positive control wells (final concentration 5.82 ng/well). Negative control wells contain only reaction mixture and test compound.
After spinning the plates at 1200 rpm for 30 seconds, 3 μl of an IRE-1α human mini-XBP-1 mRNA stem-loop substrate 5′-[…]-3′ (SEQ ID NO:1), labeled with the fluorescent dye Cy5 at the 5′ end and Black Hole Quencher 2 (BH2) at the 3′ end, are added to each well of a control plate. The plates are again spun at 1200 rpm for 30 seconds. Final concentrations for the assay are: 63 nM IRE-1α substrate, 5.82 ng IRE-1α protein, and 2.5 μM test compound.
The plates are covered with lids and incubated for one hour at 30° C. The plates are then transferred to an ACQUEST™ microplate reader. Data is analyzed using data analysis software, and the percent activity of IRE-1α is calculated.
IC50 for inhibition of IRE-1α of compounds identified in Table 1 was measured as described in EXAMPLE 35.

[2] = system: IRE-1α-mediated XBP-1 splicing in human myeloma MM.1s cells; test: Cellular EC50: endogenous XBP-1 splicing in myeloma cells by RT-PCR (DTT stress); assay type: cell-based; details: MM1.S, read-out: EC50_av
Protocol: Human myeloma MM.1s cells are incubated with a compound for 1.25 hours before stressing the cells with 2 mM dithiothreitol (DTT). After an additional 45 minutes (2 hours total) with compound and DTT, the cells are harvested with TRIZOL® (a mono-phasic solution of phenol and guanidine isothiocyanate), and total RNA is prepared as directed by the manufacturer (Invitrogen). Human XBP-1 is amplified by RT-PCR with the following primers, which flank the 26 base unconventional intron excised by IRE-1α:
RT-PCR of unstressed (U) cells then generates the upper band. When cells are stressed (S) with the endoplasmic reticulum (ER) stressing agent DTT, IRE-1α is activated due to accumulating unfolded protein and the resulting RT-PCR, product is 26 base pairs shorter.
Compounds which pass specificity assays are assayed for cellular EC50 using endogenous XBP-1 splicing in myeloma cells. XBP-1 is regulated through the excision of a 26 nucleotide intron from the XBP-1 mRNA by the highly specific endoribonuclease activity of IRE-1α. […] This splicing event is used to measure IRE-1α activity on XBP-1 mRNA in cells and tissues.
Briefly, compounds are incubated in the presence or absence of an ER stress agent (e.g., DTT), and the ratio of XBP-1u (unspliced) to XBP-1 s (spliced) is quantified by RT-PCR. The ED50 is determined as the 50% XBP-1s to total XPB-1 levels.

[3] = average cellular EC50, XBP-1 splicing in myeloma cells

human IRE-1α (GST-IRE-1α), sequence (O75460 19-977): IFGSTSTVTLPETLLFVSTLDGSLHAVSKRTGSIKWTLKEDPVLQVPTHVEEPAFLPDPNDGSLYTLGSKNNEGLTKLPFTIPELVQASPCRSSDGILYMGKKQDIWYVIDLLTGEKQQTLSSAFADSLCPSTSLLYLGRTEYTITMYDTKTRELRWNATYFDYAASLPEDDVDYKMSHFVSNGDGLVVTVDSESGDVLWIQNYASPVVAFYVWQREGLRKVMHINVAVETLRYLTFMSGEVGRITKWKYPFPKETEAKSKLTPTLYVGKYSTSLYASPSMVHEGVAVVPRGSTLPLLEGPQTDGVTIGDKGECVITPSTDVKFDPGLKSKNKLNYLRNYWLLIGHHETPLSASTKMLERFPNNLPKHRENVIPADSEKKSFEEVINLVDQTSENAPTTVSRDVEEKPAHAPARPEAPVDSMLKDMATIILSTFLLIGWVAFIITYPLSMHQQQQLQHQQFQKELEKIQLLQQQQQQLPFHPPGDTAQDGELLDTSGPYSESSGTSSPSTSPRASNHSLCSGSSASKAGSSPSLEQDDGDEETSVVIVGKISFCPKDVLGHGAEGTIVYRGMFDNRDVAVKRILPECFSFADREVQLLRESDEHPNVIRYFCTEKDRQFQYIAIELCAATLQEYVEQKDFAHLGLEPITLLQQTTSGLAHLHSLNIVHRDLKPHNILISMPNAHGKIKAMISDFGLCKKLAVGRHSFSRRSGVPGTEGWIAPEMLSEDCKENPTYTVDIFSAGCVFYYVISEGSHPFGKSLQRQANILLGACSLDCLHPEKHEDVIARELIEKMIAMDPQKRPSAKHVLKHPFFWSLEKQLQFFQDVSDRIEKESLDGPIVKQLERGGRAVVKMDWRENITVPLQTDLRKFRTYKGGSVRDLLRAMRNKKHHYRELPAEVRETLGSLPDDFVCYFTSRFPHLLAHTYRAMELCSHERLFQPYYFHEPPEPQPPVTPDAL

Row | IC50 [1] [µM] | EC50 [2, 3] [µM] | Structure (SMILES) | EC50 [2] [µM]
1 | < 0.1 | < 10 | Cc1c(-c2cccc(C(=O)NCCN3CCOCC3)c2)c(=O)oc2c(C=O)c(O)ccc12 [Example 11] | –
2 | < 0.1 | < 10 | Cc1c(-c2ccc(C(=O)N3CCOCC3)cc2)c(=O)oc2c(C=O)c(O)ccc12 [Example 12] | –
3 | < 0.1 | < 10 | Cc1c(-c2ccc(N3CCN(C)CC3)nc2)c(=O)oc2c(C=O)c(O)ccc12 [Example 14] | –
4 | < 0.1 | < 10 | Cc1c(-c2ccc(C(=O)N(C)C)cc2)c(=O)oc2c(C=O)c(O)ccc12 [Example 17] | –
5 | < 0.1 | < 10 | Cc1cc(=O)oc2c(C=O)c(O)c(Cl)cc12 [Example 22] | –
6 | < 0.1 | < 10 | Cc1c(-c2ccc(N3CCN(C)CC3)cc2)c(=O)oc2c(C=O)c(O)c(F)cc12 [Example 24] | –
7 | < 10 | > 10 | O=Cc1c(O)ccc2c1CCN(Cc1ccccc1)C2 [Example 28] | –
8 | < 0.1 | > 10 | Cc1nc(N2CCc3c(ccc(O)c3C=O)C2)sc1C(=O)NC1CCNCC1 [Example 35] | –
9 | < 1 | > 10 | Cc1nc(N2CCc3c(ccc(O)c3C=O)C2)sc1C(=O)NC1CCN(C)CC1 [Example 36] | –
10 | < 0.1 | > 10 | Cc1nc(N2CCc3c(ccc(O)c3C=O)C2)sc1C(=O)NCCN1CCOCC1 [Example 37] | –
11 | < 0.1 | > 10 | CN1CCN(c2ncc(C(=O)N3CCc4c(ccc(O)c4C=O)C3)s2)CC1 [Example 38] | –
12 | < 0.1 | > 10 | CCc1cc2c(=O)c(-c3nc(C)cs3)coc2c(C=O)c1O [Example 39] | –
13 | < 1 | > 10 | O=Cc1c(O)ccc2c(=O)c(-c3cnn(-c4ccccc4)c3)coc12 [Example 40] | –
14 | < 1 | < 10 | CN1CCN(C(=O)c2ccc(-c3ccc4c(C=O)c(O)ccc4n3)cc2)CC1 [Example 41] | –
15 | < 1 | < 10 | CN1CCN(C(=O)c2cccc(-c3ccc4c(C=O)c(O)ccc4n3)c2)CC1 [Example 42] | –
16 | < 1 | < 10 | O=Cc1c(O)ccc2nc(-c3ccc(C(=O)N4CCOCC4)cc3)ccc12 [Example 44] | –
17 | < 1 | < 10 | O=Cc1c(O)ccc2nc(-c3ccc(C(=O)NCCN4CCOCC4)cc3)ccc12 [Example 45] | –
18 | < 0.1 | > 10 | O=Cc1c(O)ccc2nc(SCC(=O)O)[nH]c12 [Example 63] | –
19 | < 0.1 | > 10 | O=Cc1c(O)ccc2nc(-c3cccc(C(=O)O)c3)[nH]c12 [Example 64] | –
20 | < 1 | > 10 | Cc1c(-c2ccc(C(=O)N3CCOCC3)cc2)c(=O)oc2c(C=O)c(O)c(Cl)cc12 [Example 67] | –
21 | < 0.1 | < 10 | CCOC(=O)c1sc(-c2cc3ccc(O)c(C=O)c3oc2=O)nc1C [Example 68] | –
22 | < 0.1 | < 10 | CCOC(=O)c1cnc(-c2cc3ccc(O)c(C=O)c3oc2=O)s1 [Example 106] | –
23 | < 0.1 | < 10 | CN1CCN(C(=O)c2cnc(-c3cc4ccc(O)c(C=O)c4oc3=O)s2)CC1 [Example 107] | –
24 | < 0.1 | < 10 | Cc1nc(-c2cc3ccc(O)c(C=O)c3oc2=O)sc1C(=O)N1CCN(C)CC1 [Example 108] | –

Row | Structure (SMILES) | IC50 [1] [µM] | EC50 [2, 3] [µM] | EC50 [2] [µM]
25 | Cc1c(-c2cccc(C(=O)N(C)C)c2)c(=O)oc2c(C=O)c(O)ccc12 [Example 20] | < 1 | – | > 10
26 | CN1CCN(C(=O)c2cnc(N3CCc4c(ccc(O)c4C=O)C3)s2)CC1 [Example 33] | < 10 | – | > 10
27 | O=Cc1c(O)ccc2nc(-c3cccc(C(=O)NCCN4CCOCC4)c3)ccc12 [Example 46] | < 0.1 | – | < 10
28 | COC(=O)c1cccc(-c2nc3ccc(O)c(C=O)c3[nH]2)c1 [Example 65] | < 0.1 | – | < 10
29 | Cc1c(CC(=O)O)c(=O)oc2c(C=O)c(O)ccc12 [Example 70] | < 0.1 | – | > 10
